# Data reported in US20130171189A1, “INDUCIBLE AND REPRESSIBLE VACCINIA VIRUSES WITH IMPROVED SAFETY” (priority 2011, published 2013).
# Where two headings read alike, the source gives them in different places.
# Test system: BS-C-1 cells
# Assay type: cell-based
# Conditions: vRG0-infected cells
# Protocol: EGFP Expression Levels by vRG0 Were not Repressed Even in the Presence of High Concentrations of TCs: To test whether vRG0 was repressible by TCs, BS-C-1 cells were infected with vRG0 in the presence of increasing concentrations of ATC, TET, or DOX. The cytopathic effect observed by brightfield microscopy 2 days post-infection was indistinguishable from the cytopathic effect observed from cells treated with ATC and 10 μg/ml or less of TET or DOX (data not shown).
# Since TCs complexed to MgCl2 bind to the TetR repressor with higher affinity than TCs alone (a commonly used strategy when studying induced conformation of the repressor by x-ray crystallography), ATC was incubated with MgCl2 to allow for complex formation.
# [1] = 100 μg/ml, 2 days post-infection
Compound,Cell toxicity [1],also measured
"C[C@H]1c2cccc(O)c2C(=O)C2=C(O)[C@]3(O)C(=O)C(C(N)=O)=C(O)[C@@H](N(C)C)[C@@H]3[C@@H](O)[C@@H]21 [DOX, doxycycline]",morphology associated with cell toxicity,–
[Cl-].[Cl-].[Mg+2] [MgCl2],–,"Cell toxicity (100 mM MgCl2 (ATC-MgCl2), 2 days): toxicity-associated morphology"
"Cc1c2c(c(O)c3c(O)cccc13)C(=O)[C@]1(O)C(=O)C(C(N)=O)=C(O)[C@@H](N(C)C)[C@@H]1C2 [ATC, anhydrotetracycline]",–,Cell toxicity (lower concentrations than TET and DOX): did not incur any toxicity
"CN(C)[C@@H]1C(O)=C(C(N)=O)C(=O)[C@@]2(O)C(O)=C3C(=O)c4c(O)cccc4[C@@](C)(O)[C@H]3C[C@@H]12 [TET, tetracycline]",morphology associated with cell toxicity,–
